Read-outs that look alike come from different tables or passages of the source.
Legend:
Format in all cases: cell-based, human
AGS cells [1] = assay: Cell cycle distribution by flow cytometry; settings: 24 h, Table 11
Procedure: (§1) The human cancer cells (2×10^5) were cultured in 60-mm Petri dishes and incubated for 24 h. After treated with test compounds for 24 h, the cells were then harvested, washed with PBS resuspended in 200 μL of PBS, and fixed in 800 μL of iced 100% ethanol at −20° C. After being left to stand overnight, the cell pellets were collected by centrifugation, resuspended in 1 mL of hypotonic buffer (0.5% Triton X-100 in PBS and 0.5 μg/mL RNase) and incubated at 37° C. for 30 min. Next, 1 mL of propidium iodide solution (50 μg/mL) was added, and the mixture was allowed to stand on ice for 30 min. Fluorescence emitted from the propidium iodide-DNA complex was quantitated after excitation of the fluorescent dye by FACScan cytometry (Becton Dickinson, San Jose, Calif.).
The effects of the hydrolyzed PMF-enriched compositions, nobiletin and 70% PMF OPE on cell cycle distribution were studied, following the procedures described in Section 8.4. Results for cell cycle distribution in HL-60 cells, COLO205 cells and AGS cells are provided in Table 5, Table 6 and Table 7, respectively. […] In HL-60 cells, G2/M arrest predominated in cells treated with 6N PMF concentrations ≧5 μM and with 1N PMF concentrations ≧25 μM.
(§2) Compounds A-K were evaluated in terms of their effects in arresting cell cycle progression by observing cell cycle phase distribution in cells treated with the compounds. Cells were treated with 5, 10, 25, 50, and 100 μM of one of compound A-K or DMSO (control) for 24 h and subjected to flow cytometric analysis after staining their DNA, as described above.
(§3) Similar cell cycle phase distribution studies were performed in AGS, COLO205, and HT-29 cells in response to individual PMFs, with results reported in Tables 11, 12 and 13, respectively.

HT-29 cells [2] = assay: Cell survival assay (antiproliferative IC50)
Procedure: Human colon carcinoma COLO205 and HT-29 cell lines (American Type Culture Collection (ATTC), Manassas, Va.) and the leukemia cell line HL-60 were maintained at 37° C. in 5% CO2 air in RPMI 1640 medium supplemented with 10% heat-inactivated fetal bovine serum (Gibco BRL, Grand Island, N.Y.), 100 units/mL penicillin, 100 μg/mL streptomycin and 2 mM 1-glutamine. The human gastric carcinoma AGS cell line (CCRC 60102), obtained from the Food Industry Research and Development Institute (Hsinchu, Taiwan), was maintained as described above, except that DMEM/F 12 was used as the medium rather than the RPMI 1640 medium. The human breast carcinoma MCF-7 cell line MCF-7 (ATTC) was cultured in RPMI 1640 medium supplemented with 5% fetal calf serum at 37° C. in a humidified atmosphere of 5% CO2 in air. The mouse macrophage cell line RAW 264.7 was maintained in RPMI 1640 supplemented with 100 U/ml penicillin, 100 μg/ml streptomycin, and 10% heat-inactivated fetal calf serum.
Cancer cells (2×10^5) were plated in 12-well Petri dishes. The next day, the medium was changed and treated with different concentration of the test compounds or compositions for 24 h. Where individual compounds were to be tested, stock solutions of the compound was prepared to contain 200 μM of the individual hydroxylated or non-hydroxylated PMF in dimethylsulfoxide (DMSO). Control cells were treated with DMSO to a final concentration of 0.05% (v/v). Depending on the objective of the particular experiment, cells were treating with test compound or composition for 1, 3 or 6 days. At the end of incubation, cells were harvested for cell count using a hemocytometer and measuring the cellular total nucleic acid content with the CyQUANT Cell Proliferation Assay Kit (Molecular Probes).
(§4) The PMF compounds were assayed in vitro for cell growth inhibition and for their ability to induce apoptosis in various human cancer cells, including HL-60, AGS, COLO 205, and HT-29 cells, using methods described in Section 8.4 above. Antiproliferative (IC50) and apoptosis-inducing activity (AC50) of PMFs in the HL-60, AGS, COLO 205, and HT-29 cells are reported in Table 9, where *P<0.05, **P<0.01 and ***P<0.001 indicate statistically significant differences from the control group.

HL-60 cells = assay: Apoptotic ratio by propidium iodide flow cytometry (AC50)
Procedure: as §1
(§5) 1 N PMF and 6 N PMF compositions containing hydroxylated PMFs, prepared as described in Section 8.3 above, 70% PMF OPE and 5,6,7,8,3′,4′-hexamethoxyflavone (nobiletin) were tested for antiproliferative activity and apoptosis-inducing activity in HL-60, AGS and COLO205 cells as described in Section 8.4 above. Antiproliferative and apoptosis-inducing activities were derived as IC50 values and AC50, values, respectively, where AC50 is the concentration required for 50% apoptosis.
as §4

COLO205 cells = assay: as above
Procedure: as §1, §5, §4

AGS cells [3] = assay: as above; settings: read-out: Apoptosis-inducing AC50
Procedure: as §1, §5, §4

HT-29 cells [4] = assay: Cell cycle distribution by flow cytometry; settings: for Cell Cycle Distribution G0/G1 / Cell Cycle Distribution G2/M / Cell Cycle Distribution S: 24 h; for Cell cycle arrest, in words: 5-100 μM, 24 h exposure
Procedure: as §1, §2, §3

| Compound | Cell Cycle Distribution G0/G1 (AGS cells [1]; 5 μM) | Cell Cycle Distribution G2/M (AGS cells [1]; 5 μM) | Cell Cycle Distribution S (AGS cells [1]; 5 μM) | Cell Cycle Distribution G0/G1 (AGS cells [1]; 10 μM) | Cell Cycle Distribution G2/M (AGS cells [1]; 10 μM) | Cell Cycle Distribution S (AGS cells [1]; 10 μM) | Cell Cycle Distribution G0/G1 (AGS cells [1]; 25 μM) | Cell Cycle Distribution G2/M (AGS cells [1]; 25 μM) | Cell Cycle Distribution S (AGS cells [1]; 25 μM) | Cell Cycle Distribution G0/G1 (AGS cells [1]; 50 μM) | Cell Cycle Distribution G2/M (AGS cells [1]; 50 μM) | Cell Cycle Distribution S (AGS cells [1]; 50 μM) | Cell Cycle Distribution G0/G1 (AGS cells [1]; 100 μM) | Cell Cycle Distribution G2/M (AGS cells [1]; 100 μM) | Cell Cycle Distribution S (AGS cells [1]; 100 μM) | Cell Cycle Distribution G0/G1 (HT-29 cells [4]; 5 μM) | Cell Cycle Distribution G2/M (HT-29 cells [4]; 5 μM) | Cell Cycle Distribution S (HT-29 cells [4]; 5 μM) | Cell Cycle Distribution G0/G1 (HT-29 cells [4]; 10 μM) | Cell Cycle Distribution G2/M (HT-29 cells [4]; 10 μM) | also measured |
| --- | --- | --- | --- | --- | --- | --- | --- | --- | --- | --- | --- | --- | --- | --- | --- | --- | --- | --- | --- | --- | --- |
| COc1cc(-c2cc(=O)c3c(O)c(OC)c(OC)c(OC)c3o2)cc(OC)c1OC [E, 5-hydroxy-6,7,8,3′,4′,5′-hexamethoxyflavone] | 55.70 ± 0.14 | 15.88 ± 0.89 | 28.42 ± 0.75 | 56.96 ± 3.14 | 16.00 ± 0.55 | 27.05 ± 2.60 | 56.32 ± 2.62 | 14.40 ± 2.38 | 29.25 ± 0.18 | 54.53 ± 0.30 | 15.69 ± 1.41 | 29.79 ± 1.10 | 55.68 ± 0.46 | 13.51 ± 0.17 | 30.82 ± 0.29 | 57.96 ± 0.21 | 10.19 ± 0.07 | 31.85 ± 0.14 | 57.86 ± 0.31 | 10.01 ± 0.46 | IC50 (HT-29 cells [2]; Homo sapiens): > 100 µM; AC50 (HL-60 cells; Homo sapiens, HL-60 cells, read-out: Apoptosis-inducing AC50): > 100 µM; AC50 (COLO205 cells; Homo sapiens, COLO 205, COLO205 cells, read-out: Apoptosis-inducing AC50): > 100 µM; AC50 (AGS cells [3]; Homo sapiens, AGS cells): > 100 µM; Cell Cycle Distribution S (HT-29 cells [4]; 10 μM): 32.14 ± 0.78; Cell Cycle Distribution G0/G1 (HT-29 cells [4]; 25 μM): 59.20 ± 0.06; Cell Cycle Distribution G2/M (HT-29 cells [4]; 25 μM): 9.63 ± 0.69; Cell Cycle Distribution S (HT-29 cells [4]; 25 μM): 31.18 ± 0.74; Cell Cycle Distribution G0/G1 (HT-29 cells [4]; 50 μM): 58.95 ± 0.95; Cell Cycle Distribution G2/M (HT-29 cells [4]; 50 μM): 9.26 ± 0.16; Cell Cycle Distribution S (HT-29 cells [4]; 50 μM): 31.79 ± 1.12; Cell Cycle Distribution G0/G1 (HT-29 cells [4]; 100 μM): 61.79 ± 1.47; Cell Cycle Distribution G2/M (HT-29 cells [4]; 100 μM): 8.79 ± 1.23; Cell Cycle Distribution S (HT-29 cells [4]; 100 μM): 29.42 ± 0.24 |
| COc1ccc(-c2cc(=O)c3c(OC)c(OC)c(OC)c(OC)c3o2)cc1O [I, 3′-hydroxy-5,6,7,8,4′-pentamethoxyflavone] | 57.25 ± 0.28 | 16.01 ± 0.21 | 26.74 ± 0.49 | 58.27 ± 0.96 | 17.94 ± 1.07 | 23.79 ± 2.03 | 49.07 ± 1.22 | 16.15 ± 0.69 | 34.79 ± 1.90 | 62.72 ± 1.27 | 0.59 ± 0.74 | 36.70 ± 2.00 | 69.35 ± 0.70 | 12.65 ± 0.84 | 18.01 ± 0.14 | 60.78 ± 1.52 | 7.95 ± 0.71 | 31.28 ± 0.81 | 61.09 ± 1.06 | 7.89 ± 0.23 | IC50 (HT-29 cells [2]; Homo sapiens): > 100 µM; AC50 (HL-60 cells; Homo sapiens, HL-60, read-out: Apoptosis-inducing AC50): 94.6 ± 1.5 µM; AC50 (COLO205 cells; Homo sapiens, COLO 205, read-out: Apoptosis-inducing AC50): > 100 µM; AC50 (AGS cells [3]; Homo sapiens, AGS): > 100 µM; Cell Cycle Distribution S (HT-29 cells [4]; 10 μM): 31.02 ± 1.30; Cell Cycle Distribution G0/G1 (HT-29 cells [4]; 25 μM): 60.90 ± 0.87; Cell Cycle Distribution G2/M (HT-29 cells [4]; 25 μM): 7.48 ± 0.64; Cell Cycle Distribution S (HT-29 cells [4]; 25 μM): 31.63 ± 0.23; Cell Cycle Distribution G0/G1 (HT-29 cells [4]; 50 μM): 66.36 ± 0.88; Cell Cycle Distribution G2/M (HT-29 cells [4]; 50 μM): 9.83 ± 0.61; Cell Cycle Distribution S (HT-29 cells [4]; 50 μM): 23.81 ± 0.28; Cell Cycle Distribution G0/G1 (HT-29 cells [4]; 100 μM): 74.18 ± 2.33; Cell Cycle Distribution G2/M (HT-29 cells [4]; 100 μM): 0.37 ± 0.40; Cell Cycle Distribution S (HT-29 cells [4]; 100 μM): 25.45 ± 2.72; Cell cycle arrest, in words (HT-29 cells [4]): significant accumulation of cells in G1 phase |
| COc1ccc(-c2oc3c(OC)c(OC)c(OC)c(OC)c3c(=O)c2OC)cc1OC [D, 3,5,6,7,8,3,4-heptamethoxyflavone, reference compound] | 37.6 ± 0.92 | 0.4 ± 0.57 | 62.4 ± 0.85 | 44.2 ± 0.14 | 1.3 ± 0.42 | 55.2 ± 0.42 | 46.6 ± 0.35 | 4.7 ± 0.14 | 48.8 ± 0.42 | 48.0 ± 0.14 | 6.9 ± 0.42 | 45.7 ± 0.35 | 63.2 ± 0.78 | 4.0 ± 0.14 | 33.0 ± 0.49 | 67.79 ± 0.17 | 7.56 ± 0.23 | 24.66 ± 0.06 | 57.61 ± 0.69 | 10.41 ± 0.45 | IC50 (HT-29 cells [2]): > 100 µM; AC50 (HL-60 cells; HL-60 cells, read-out: Apoptosis-inducing AC50): > 100 µM; AC50 (COLO205 cells; COLO205 cells, read-out: Apoptosis-inducing AC50): > 100 µM; AC50 (AGS cells [3]; AGS cells): > 100 µM; Cell Cycle Distribution S (HT-29 cells [4]; 10 μM): 30.98 ± 1.18; Cell Cycle Distribution G0/G1 (HT-29 cells [4]; 25 μM): 76.11 ± 1.56; Cell Cycle Distribution G2/M (HT-29 cells [4]; 25 μM): 9.04 ± 2.77; Cell Cycle Distribution S (HT-29 cells [4]; 25 μM): 14.89 ± 1.21; Cell Cycle Distribution G0/G1 (HT-29 cells [4]; 50 μM): 77.31 ± 2.82; Cell Cycle Distribution G2/M (HT-29 cells [4]; 50 μM): 12.21 ± 0.74; Cell Cycle Distribution S (HT-29 cells [4]; 50 μM): 20.49 ± 2.09; Cell Cycle Distribution G0/G1 (HT-29 cells [4]; 100 μM): 80.66 ± 0.01; Cell Cycle Distribution G2/M (HT-29 cells [4]; 100 μM): 3.79 ± 0.43; Cell Cycle Distribution S (HT-29 cells [4]; 100 μM): 15.57 ± 0.43; Cell cycle arrest, in words (HT-29 cells [4]): significant accumulation of cells in G1 phase |

— patent US20140039044A1, “Hydroxylated Polymethoxyflavone Compositions” (WLLGEN, INC., priority 2006, published 2014)
